The results in this text go back to patent US8962648B2, “Tricyclic compounds and PBK inhibitors containing the same” (OncoTherapy Science, Inc., priority 2010, dated 2015).

One test deals with PBK (Homo sapiens (Human), UniProt Q96KB5). The test is described as follows: Kinase assay (IMAP fluorescence polarization, FITC-labeled histone H3 peptide). It counts as biochemical. The method in brief: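 PBK at 0.8 ng/µL with 100 nM FITC-histone H3 peptide and 50 µM ATP in HEPES pH 7.4, 0.3 mM MgCl2, 2 mM DTT, reacted 1 h at room temperature. Phosphorylation read by IMAP fluorescence polarization; IC50 from four-parameter fit.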
Chain of PBK (Q96KB5 whole entry): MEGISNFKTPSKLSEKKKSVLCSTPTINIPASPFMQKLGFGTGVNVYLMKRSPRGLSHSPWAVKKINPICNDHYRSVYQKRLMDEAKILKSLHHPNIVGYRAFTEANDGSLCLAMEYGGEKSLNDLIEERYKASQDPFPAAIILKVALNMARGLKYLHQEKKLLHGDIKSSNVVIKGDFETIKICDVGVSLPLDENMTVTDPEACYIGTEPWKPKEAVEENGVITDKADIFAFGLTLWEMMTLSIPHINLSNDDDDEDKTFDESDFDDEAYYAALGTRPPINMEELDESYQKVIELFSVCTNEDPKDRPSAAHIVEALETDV
On the technique in general: Polarisation of emitted light reports the rotation of a fluorescent probe.

The subject of a further test is HT-1197 cells. Briefly: Cell-based assay, cellular growth (Cell Counting Kit-8, 72 hours), PBK-negative control cells. Here is the method:
(§1) 100 micro-L of cell suspension was seeded onto 96-well microtiter plate (ViewPlate-96FTC, PerkinElmer). […] Cellular growth was determined using Cell Counting Kit-8 (DOJINDO) at 72 hours after the exposure of the candidate inhibitors. […] Accurate IC50 values were calculated as described previously.

Another test concerns 22Rv1 cells. Briefly: Cell-based assay, cellular growth (Cell Counting Kit-8, 72 hours). Particulars: Homo sapiens. Background: Tetrazolium dyes change colour on reduction, which living cells bring about.
The next test concerns BT-549 cells. The description is as above. Particulars: Homo sapiens, BT549 cells. As for the experimental part: as §1
A further test relates to T47D cells. Described as above. Here is the method:
as §1

The subject of another test is A549 cells. The description is as above. The method in brief:
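IC50 values come from growth read-outs taken after the cells' exposure to each candidate inhibitor. Cells had been plated in 96-well microtiter plates beforehand.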

[1] abbreviates: PBK 0.8 ng/micro-L, 50 micro-M ATP, 100 nM FITC-labeled histone H3 peptide, room temperature 1 hour.

Counter-ions that a name gives are not always drawn. Like-named read-outs stand apart in the source and are kept apart here.

A word on the IC50: it is the concentration at which inhibition is half-maximal. A high value points to a need for much substance. Regarding `C[C@@H](CN)c1ccc(-c2c(O)ccc3[nH]c(=O)c4sccc4c23)cc1` [Compound 1160, (R)-9-(4-(1-aminopropan-2-yl)phenyl)-8-hydroxythieno[2,3-c]quinolin-4(5H)-one hydrochloride], the IC50 against PBK (setting [1]) came to 0.64 nM; in the test with HT-1197 cells (Homo sapiens, HT1197, 72 h), 230 nM; in the test with 22Rv1 cells, 69 nM; in the test on BT-549 cells, 54 nM; in the test on T47D cells (Homo sapiens, T47D, 72 h), 57 nM; with A549 cells (Homo sapiens, A549, 72 h), 56 nM.

`Cc1cc(O)c(-c2ccc([C@@H](C)CN)cc2)c2c1[nH]c(=O)c1sccc12` [Compound 1169, (R)-9-(4-(1-aminopropan-2-yl)phenyl)-8-hydroxy-6-methylthieno[2,3-c]quinolin-4(5H)-one hydrobromide]: the 50% inhibitory concentration (IC50) in the test with 22Rv1 cells was determined as 22 nM; in the test on BT-549 cells, 13 nM; in the test on T47D cells (Homo sapiens, T47D, 72 h) it was 24 nM; in the test with A549 cells (Homo sapiens, A549, 72 h), 23 nM.

In the case of `Cc1cc(O)c(-c2ccc(C3CCCNC3)cc2)c2c1[nH]c(=O)c1sccc12` (stereo not drawn) [Compound 1302, 8-hydroxy-6-methyl-9-(4-(piperidin-3-yl)phenyl)thieno[2,3-c]quinolin-4(5H)-one hydrochloride], the 50% inhibitory concentration (IC50) on PBK (setting [1]) was 75 nM; with HT-1197 cells (Homo sapiens, HT1197, 72 h), 1500 nM; in the test on BT-549 cells it was 740 nM; in the test on T47D cells (Homo sapiens, T47D, 72 h), 830 nM; with A549 cells (Homo sapiens, A549, 72 h) it was 970 nM.

Take `Cc1cc(O)c(-c2ccc([C@H](C)CN)c(F)c2)c2c1[nH]c(=O)c1sccc12` [Compound 1303, (S)-9-(4-(1-aminopropan-2-yl)-3-fluorophenyl)-8-hydroxy-6-methylthieno[2,3-c]quinolin-4(5H)-one]: the IC50 at PBK (setting [1]) turned out to be 14 nM; in the test on HT-1197 cells (Homo sapiens, HT1197, 72 h), 510 nM; in the test with BT-549 cells it was 81 nM; in the test with T47D cells (Homo sapiens, T47D, 72 h), 130 nM; in the test on A549 cells (Homo sapiens, A549, 72 h), 92 nM.

As to `COc1cc(C)c2[nH]c(=O)c3sccc3c2c1-c1ccc([C@@H](C)CN)cc1` [Compound 1305, (R)-9-(4-(1-aminopropan-2-yl)phenyl)-8-methoxy-6-methylthieno [2,3-c]quinolin-4(5H)-one hydrochloride], the half-inhibitory concentration (IC50) stood at 15 nM against PBK (setting [1]); 64 nM in the test with HT-1197 cells (Homo sapiens, HT1197, 72 h); 21 nM with BT-549 cells; 40 nM with T47D cells (Homo sapiens, T47D, 72 h); 20 nM with A549 cells (Homo sapiens, A549, 72 h).

`CNC[C@H](C)c1ccc(-c2c(O)cc(C)c3[nH]c(=O)c4sccc4c23)cc1` [Compound 1307, (R)-8-hydroxy-6-methyl-9-(4-(1-(methylamino)propan-2-yl)phenyl)thieno [2,3-c]quinolin-4(5H)-one hydrobromide]: the IC50 is 18 nM against PBK (PBK 0.8 ng/micro-L, 50 micro-M ATP, 100 nM FITC-labeled histone H3 peptide, room temperature 1 hour, hydrobromide); 150 nM with HT-1197 cells (HT1197 cells (PBK-negative control), hydrobromide); 42 nM in the test on BT-549 cells; 85 nM in the test on T47D cells (hydrobromide); 57 nM in the test on A549 cells (hydrobromide).

Consider `COc1cc(C)c2[nH]c(=O)c3sccc3c2c1-c1ccc([C@H](C)CN)c(F)c1` [Compound 1310, (S)-9-(4-(1-aminopropan-2-yl)-3-fluorophenyl)-8-methoxy-6-methylthieno[2,3-c]quinolin-4(5H)-one hydrochloride], for which the 50% inhibitory concentration (IC50) against PBK was 54 nM; in the test with HT-1197 cells (Homo sapiens, HT1197, 72 h), 890 nM; in the test on BT-549 cells, 400 nM; with T47D cells (Homo sapiens, T47D, 72 h) it was 800 nM; with A549 cells (Homo sapiens, A549, 72 h), 370 nM.

On to `Cc1cc(O)c(-c2ccc([C@@H](C)CN(C)C)c(F)c2)c2c1[nH]c(=O)c1sccc12` [Compound 1311, (R)-9-(4-(1-(dimethylamino)propan-2-yl)-3-fluorophenyl)-8-hydroxy-6-methylthieno[2,3-c]quinolin-4(5H)-one hydrochloride], for which the IC50 was found to be 17 nM against PBK; 110 nM with HT-1197 cells (Homo sapiens, HT1197, 72 h); 37 nM with BT-549 cells; 70 nM in the test on T47D cells (Homo sapiens, T47D, 72 h); 45 nM in the test with A549 cells (Homo sapiens, A549, 72 h).

`CNC[C@H](C)c1ccc(-c2c(O)cc(C)c3[nH]c(=O)c4sccc4c23)cc1F` [Compound 1315, (R)-9-(3-fluoro-4-(1-(methylamino)propan-2-yl)phenyl)-8-hydroxy-6-methylthieno[2,3-c]quinolin-4(5H)-one hydrochloride]: the IC50 against PBK was 8.1 nM; with HT-1197 cells (Homo sapiens, HT1197, 72 h) it was 100 nM; in the test with BT-549 cells, 24 nM; in the test with T47D cells (Homo sapiens, T47D, 72 h), 41 nM; with A549 cells (Homo sapiens, A549, 72 h) it was 34 nM.

In the case of `CNC[C@H](C)c1ccc(-c2c(OC)cc(C)c3[nH]c(=O)c4sccc4c23)cc1F` [Compound 1316, (R)-9-(3-fluoro-4-(1-(methylamino)propan-2-yl)phenyl)-8-methoxy-6-methylthieno[2,3-c]quinolin-4(5H)-one hydrochloride], the concentration for half-maximal inhibition (IC50) turned out to be 33 nM against PBK; 230 nM in the test with HT-1197 cells (Homo sapiens, HT1197, 72 h); 83 nM in the test with BT-549 cells; 160 nM with T47D cells (Homo sapiens, T47D, 72 h); 86 nM in the test with A549 cells (Homo sapiens, A549, 72 h).

For the compound `COc1cc(C)c2[nH]c(=O)c3sccc3c2c1-c1ccc([C@@H](C)CN)c(F)c1` [Compound 1317, (R)-9-(4-(1-aminopropan-2-yl)-3-fluorophenyl)-8-methoxy-6-methylthieno[2,3-c]quinolin-4(5H)-one hydrochloride], the 50% inhibitory concentration (IC50) against PBK is 22 nM; in the test with HT-1197 cells (Homo sapiens, HT1197, 72 h), 100 nM; in the test on BT-549 cells it was 36 nM; with T47D cells (Homo sapiens, T47D, 72 h), 72 nM; with A549 cells (Homo sapiens, A549, 72 h) it was 42 nM.

Take `Cc1cc(O)c(-c2ccc([C@@H](C)CN)c(F)c2)c2c1[nH]c(=O)c1sccc12` [Compound 1318, (R)-9-(4-(1-aminopropan-2-yl)-3-fluorophenyl)-8-hydroxy-6-methylthieno[2,3-c]quinolin-4(5H)-one hydrochloride]: the 50% inhibitory concentration (IC50) turned out to be 3.6 nM at PBK (PBK 0.8 ng/micro-L, 50 micro-M ATP, 100 nM FITC-labeled histone H3 peptide, room temperature 1 hour, hydrochloride); 63 nM with HT-1197 cells (Homo sapiens, HT1197, 72 h); 8.4 nM in the test on BT-549 cells; 15 nM with T47D cells (Homo sapiens, T47D, 72 h); 15 nM with A549 cells (Homo sapiens, A549, 72 h).

Regarding `C[C@@H](CN(C)C)c1ccc(-c2c(O)cc(Cl)c3[nH]c(=O)c4sccc4c23)cc1` [Compound 1347, (R)-6-chloro-9-(4-(1-(dimethylamino)propan-2-yl)phenyl)-8-hydroxythieno [2,3-c]quinolin-4(5H)-one hydrochloride], the IC50 against PBK (setting [1]) worked out at 43 nM; with HT-1197 cells (Homo sapiens, HT1197, 72 h), 260 nM; in the test on BT-549 cells, 110 nM; in the test with T47D cells (Homo sapiens, T47D, 72 h), 260 nM; with A549 cells (Homo sapiens, A549, 72 h), 100 nM.

In the case of `CC[C@@H](CN)c1ccc(-c2c(O)cc(C)c3[nH]c(=O)c4sccc4c23)cc1` [Compound 1352, (R)-9-(4-(1-aminobutan-2-yl)phenyl)-8-hydroxy-6-methylthieno[2,3-c]quinolin-4(5H)-one hydrochloride], the IC50 on PBK (setting [1]) was found to be 40 nM; with HT-1197 cells (Homo sapiens, HT1197, 72 h), 340 nM; in the test on BT-549 cells, 71 nM; with T47D cells (Homo sapiens, T47D, 72 h), 99 nM; with A549 cells (Homo sapiens, A549, 72 h), 55 nM.

On to `CNCCc1ccc(-c2c(O)cc(C)c3[nH]c(=O)c4sccc4c23)cc1` [Compound 1364, 8-hydroxy-6-methyl-9-(4-(2-(methylamino)ethyl)phenyl)thieno[2,3-c]quinolin-4(5H)-one hydrochloride], for which the half-inhibitory concentration (IC50) against PBK (setting [1]) was found to be 55 nM; in the test with HT-1197 cells (Homo sapiens, HT1197, 72 h), 660 nM; in the test with BT-549 cells, 260 nM; with T47D cells (Homo sapiens, T47D, 72 h) it was 300 nM; in the test on A549 cells (Homo sapiens, A549, 72 h), 270 nM.
